In experiment [1] the target is T1, 5-hydroxytryptamine receptor 3A (Homo sapiens) (UniProt P46098).
T1 sequence (whole entry): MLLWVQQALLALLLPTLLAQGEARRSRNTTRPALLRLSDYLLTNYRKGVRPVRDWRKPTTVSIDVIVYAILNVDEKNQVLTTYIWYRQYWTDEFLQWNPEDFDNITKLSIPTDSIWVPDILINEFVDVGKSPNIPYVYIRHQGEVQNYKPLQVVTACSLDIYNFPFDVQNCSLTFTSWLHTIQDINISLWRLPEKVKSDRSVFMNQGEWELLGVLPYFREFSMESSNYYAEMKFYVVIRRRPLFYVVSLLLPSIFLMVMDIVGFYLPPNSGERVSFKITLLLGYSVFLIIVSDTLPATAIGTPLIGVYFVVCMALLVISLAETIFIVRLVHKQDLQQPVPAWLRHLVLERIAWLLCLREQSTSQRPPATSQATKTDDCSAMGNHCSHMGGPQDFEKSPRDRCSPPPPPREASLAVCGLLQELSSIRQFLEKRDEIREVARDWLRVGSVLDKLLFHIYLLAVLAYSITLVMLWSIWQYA
Description: Reversible inhibition of human 5-HT3A expressed in xenopus oocytes assessed as decrease in 5-HT-activated chloride current at […] by two-electrode voltage clamp technique. It is filed as cell-based. (In general: Two-electrode voltage clamp holds a large cell at a set potential and records current.)

Experiment [2] concerns the target T2, 5-hydroxytryptamine receptor 1A (Homo sapiens, UniProt P08908).
T2 sequence (P08908 whole entry): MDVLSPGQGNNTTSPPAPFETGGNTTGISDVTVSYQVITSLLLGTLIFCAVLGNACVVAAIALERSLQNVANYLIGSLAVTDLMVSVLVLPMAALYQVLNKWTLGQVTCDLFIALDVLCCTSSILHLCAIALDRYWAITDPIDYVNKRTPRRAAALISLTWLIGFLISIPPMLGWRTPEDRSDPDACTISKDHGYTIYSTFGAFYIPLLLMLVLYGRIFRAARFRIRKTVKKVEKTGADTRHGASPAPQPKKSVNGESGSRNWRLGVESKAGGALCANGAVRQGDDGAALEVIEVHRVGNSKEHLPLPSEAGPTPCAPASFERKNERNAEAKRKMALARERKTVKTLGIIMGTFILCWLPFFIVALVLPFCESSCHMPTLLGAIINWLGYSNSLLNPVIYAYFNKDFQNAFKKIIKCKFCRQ
Description: Displacement of [3H]-8-OH-DPAT from human recombinant 5-HT1A receptor expressed in HEK293 cell membrane after 1 hr by Microbeta scintillation counting analysis. The class given is cell membranes. In general terms: Displacement assays read how much labelled ligand stays bound in the presence of the test substance.

The target of experiment [3] is T3, Adrenergic receptor alpha-1 (Rattus norvegicus, UniProt P15823+P23944+P43140).
T3 sequence (P15823 whole entry): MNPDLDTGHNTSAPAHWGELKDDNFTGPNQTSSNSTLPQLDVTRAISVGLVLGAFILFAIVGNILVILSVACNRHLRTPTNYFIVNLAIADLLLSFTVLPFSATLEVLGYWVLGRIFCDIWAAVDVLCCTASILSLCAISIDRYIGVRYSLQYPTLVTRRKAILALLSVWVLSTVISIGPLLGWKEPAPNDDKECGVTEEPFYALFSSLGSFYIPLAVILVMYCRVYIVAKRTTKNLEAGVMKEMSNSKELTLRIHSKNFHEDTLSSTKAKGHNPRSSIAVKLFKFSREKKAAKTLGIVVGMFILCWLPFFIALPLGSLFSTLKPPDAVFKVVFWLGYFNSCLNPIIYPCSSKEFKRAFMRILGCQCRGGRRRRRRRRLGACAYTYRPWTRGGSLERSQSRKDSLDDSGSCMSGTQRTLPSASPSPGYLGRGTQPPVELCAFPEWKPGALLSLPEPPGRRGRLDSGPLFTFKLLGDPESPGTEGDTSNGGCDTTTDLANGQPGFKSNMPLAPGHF
T3 sequence (P23944 whole entry): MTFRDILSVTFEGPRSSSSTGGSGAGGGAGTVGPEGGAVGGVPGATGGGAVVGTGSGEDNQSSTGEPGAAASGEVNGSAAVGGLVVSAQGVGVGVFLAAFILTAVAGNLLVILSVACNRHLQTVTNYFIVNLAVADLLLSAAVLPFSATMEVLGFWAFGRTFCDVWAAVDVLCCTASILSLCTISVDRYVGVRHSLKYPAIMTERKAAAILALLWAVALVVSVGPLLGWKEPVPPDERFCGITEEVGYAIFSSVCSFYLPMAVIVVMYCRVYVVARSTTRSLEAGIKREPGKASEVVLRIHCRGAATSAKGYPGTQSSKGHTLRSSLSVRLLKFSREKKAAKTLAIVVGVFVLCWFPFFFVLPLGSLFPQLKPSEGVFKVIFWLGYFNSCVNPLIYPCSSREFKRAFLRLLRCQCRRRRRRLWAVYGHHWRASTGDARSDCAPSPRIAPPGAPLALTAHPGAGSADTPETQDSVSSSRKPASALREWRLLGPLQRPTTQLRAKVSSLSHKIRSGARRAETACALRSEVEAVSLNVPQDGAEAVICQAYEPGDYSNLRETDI
T3 sequence (P43140 whole entry): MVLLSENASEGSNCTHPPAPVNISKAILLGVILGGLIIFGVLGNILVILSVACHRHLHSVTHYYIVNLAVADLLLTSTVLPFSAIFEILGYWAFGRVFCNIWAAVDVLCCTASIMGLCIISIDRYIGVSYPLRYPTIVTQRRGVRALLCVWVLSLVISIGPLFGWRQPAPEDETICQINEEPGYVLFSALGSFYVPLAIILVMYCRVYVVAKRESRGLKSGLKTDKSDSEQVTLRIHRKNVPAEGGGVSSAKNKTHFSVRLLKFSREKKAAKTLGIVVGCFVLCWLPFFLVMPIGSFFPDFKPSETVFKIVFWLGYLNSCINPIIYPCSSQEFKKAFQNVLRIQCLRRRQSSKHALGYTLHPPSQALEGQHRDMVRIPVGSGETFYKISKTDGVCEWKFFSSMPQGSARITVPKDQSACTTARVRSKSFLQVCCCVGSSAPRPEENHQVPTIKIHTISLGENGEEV
Description: Displacement of [3H]prazosin from alpha1 adrenergic receptor in rat cerebral cortex after 30 mins by Microbeta scintillation counting analysis. The class given is tissue-based.

The target of experiment [4] is 5-hydroxytryptamine receptor 6 (Homo sapiens, UniProt P50406). Description: Displacement of [3H]-LSD from human recombinant 5-HT6 receptor expressed in HEK293 cell membrane after 1 hr by Microbeta scintillation counting analysis. It is filed as cell membranes.
Experiment [5] addresses 5-hydroxytryptamine receptor 7 (Homo sapiens, UniProt P34969). Description: Displacement of [3H]-5-CT from human recombinant 5-HT7 receptor expressed in HEK293 cell membrane after 1 hr by Microbeta scintillation counting analysis. It is filed as cell membranes.
In experiment [6] the test system is HEK293. Description: Selectivity ratio of Ki for human recombinant 5-HT1A receptor expressed in HEK293 cell membrane to Ki for human recombinant 5-HT7 receptor expressed in HEK293 cell membrane. The class given is cell-based.
Experiment [7] has as its system HEK293. Description: Selectivity ratio of Ki for alpha1 adrenergic receptor in rat cerebral cortex to Ki for human recombinant 5-HT7 receptor expressed in HEK293 cell membrane. It is filed as cell-based.

pKi: −log10 of the molar value.

Here are results for 18 molecules from ChEMBL document CHEMBL3232706, “SAR-studies on the importance of aromatic ring topologies in search for selective 5-HT(7) receptor ligands among phenylpiperazine hydantoin derivatives” (Eur J Med Chem, 2014).

Sequence of 5-hydroxytryptamine receptor 7 (P34969 whole entry): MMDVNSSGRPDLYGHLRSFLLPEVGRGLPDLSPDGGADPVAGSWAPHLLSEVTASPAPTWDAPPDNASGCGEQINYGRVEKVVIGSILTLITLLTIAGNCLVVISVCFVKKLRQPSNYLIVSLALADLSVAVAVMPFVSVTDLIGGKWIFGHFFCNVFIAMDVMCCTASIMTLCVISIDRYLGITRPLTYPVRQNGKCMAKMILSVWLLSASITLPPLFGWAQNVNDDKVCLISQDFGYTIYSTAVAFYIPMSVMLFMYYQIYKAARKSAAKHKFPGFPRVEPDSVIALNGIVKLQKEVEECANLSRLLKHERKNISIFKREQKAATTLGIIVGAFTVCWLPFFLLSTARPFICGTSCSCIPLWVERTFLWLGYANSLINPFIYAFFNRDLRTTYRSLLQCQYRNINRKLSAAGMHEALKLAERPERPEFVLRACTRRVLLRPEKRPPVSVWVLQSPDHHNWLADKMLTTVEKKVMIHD
Sequence of 5-hydroxytryptamine receptor 6 (P50406 whole entry): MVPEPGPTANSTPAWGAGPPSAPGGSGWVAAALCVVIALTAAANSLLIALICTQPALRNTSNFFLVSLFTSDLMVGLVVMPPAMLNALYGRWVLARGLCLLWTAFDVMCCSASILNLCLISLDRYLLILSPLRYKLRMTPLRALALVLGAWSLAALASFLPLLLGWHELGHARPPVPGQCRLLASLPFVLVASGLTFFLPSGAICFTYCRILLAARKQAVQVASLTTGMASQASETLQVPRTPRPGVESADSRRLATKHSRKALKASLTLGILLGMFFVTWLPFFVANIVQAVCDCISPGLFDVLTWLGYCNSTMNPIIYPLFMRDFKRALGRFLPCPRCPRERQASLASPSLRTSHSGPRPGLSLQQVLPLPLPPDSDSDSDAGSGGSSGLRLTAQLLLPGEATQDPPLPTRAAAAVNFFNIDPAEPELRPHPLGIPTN

In general, inhibition refers to the percentage by which the read-out fell short of the control. As usually defined, the pKi is the Ki on a negative log10 scale, so that one unit is a factor of ten. What is called Ki is a dissociation constant, usually derived from enzyme kinetics or from competition with a known ligand. Higher therefore signals a looser hold on the target. Take `CN1C(=O)N(CCCCCN2CCN(c3ccccc3)CC2)C(c2ccccc2)(c2ccccc2)C1=O.Cl`: the inhibition in experiment [1] stood at 36.9%. The pKi in experiment [2] is 7.88; in experiment [4] it was 5.51; in experiment [5], 7.11. For the same molecule, the inhibition constant (Ki) in experiment [3] amounted to 6.7 nM.
Regarding `CC1(C)C(=O)N(Cc2ccc(Cl)cc2Cl)C(=O)N1CCCCCN1CCN(c2cccc(Cl)c2Cl)CC1.Cl`, in experiment [1], the inhibition came to 13.8%. Also, the Ratio Ki in experiment [6] worked out at 3; in experiment [7] it was 31. In addition, the pKi in experiment [2] is 7.06; in experiment [4] it was 6.40; in experiment [5], 7.51. Moreover, the Ki in experiment [3] was 968.8 nM.
As to `CC1(C)C(=O)N(Cc2ccc(F)cc2)C(=O)N1CCCCCN1CCN(c2ccc(F)cc2F)CC1.Cl`, the pKi in experiment [2] is 6.52; in experiment [4], 5.09; in experiment [5], 6.91. For the same molecule, the Ki in experiment [3] is listed as 38.8 nM.
As for `CN1C(=O)N(CC(O)CN2CCN(c3ccccc3)CC2)C(c2ccccc2)(c2ccccc2)C1=O` (configuration not stated), the pKi was 6.49 in experiment [2], 4.69 in experiment [4] and 6.45 in experiment [5].
In the case of `CC1(C)C(=O)N(Cc2ccccc2)C(=O)N1CCCCCN1CCN(c2ccc(F)cc2F)CC1.Cl`, the results for the pKi in experiment [2], in experiment [4] and in experiment [5] were 6.63, 5.13 and 6.76, respectively. In experiment [3], the Ki came to 71.5 nM.
For `COc1ccccc1N1CCN(CC(O)CN2C(=O)NC(C)(c3ccc(F)cc3)C2=O)CC1.Cl` (configuration not stated), the inhibition in experiment [1] was 16.6%. Besides, in experiment [3], the Ki is recorded as 181.1 nM. Further, the pKi in experiment [4] was 4.97.
As for `COc1ccccc1N1CCN(CCCCCN2C(=O)N(C)C(=O)C2(C)c2ccccc2)CC1.Cl` (configuration not stated), in experiment [1], the inhibition was 19.8%. The negative-log Ki (pKi) in experiment [2] was 7.63; in experiment [4], 4.83; in experiment [5], 7.47. The Ki in experiment [3] turned out to be 42.3 nM.
On to `CC1(C)C(=O)N(Cc2ccccc2)C(=O)N1CCCCCN1CCN(c2ccccc2F)CC1.Cl`, for which the pKi in experiment [2] was 7.12; in experiment [4], 5.60; in experiment [5], 6.87. In addition, the Ki in experiment [3] was 71 nM.
For `CC1(C)C(=O)N(Cc2ccc(F)cc2)C(=O)N1CCCCCN1CCN(c2ccc(F)cc2)CC1.Cl`, the inhibition in experiment [1] stood at 17.2%. Further, the pKi in experiment [2] is 6.52; in experiment [4], 5.75; in experiment [5], 7.34. In experiment [3], the inhibition constant Ki is 36.8 nM.
For the molecule `COc1ccccc1N1CCN(CCCCCN2C(=O)N(Cc3ccccc3)C(=O)C2(C)C)CC1.Cl`, the negative logarithm of the Ki (pKi) in experiment [2] was 7.59; in experiment [4], 5.06; in experiment [5] it was 7.14. In addition, in experiment [3], the inhibition constant Ki was 42.6 nM.
On to `CC1(C)C(=O)N(Cc2ccc(Cl)cc2Cl)C(=O)N1CCCCCN1CCN(c2ccc(Cl)c(Cl)c2)CC1.Cl`, for which the Ratio Ki in experiment [6] was 4; in experiment [7], 9. For the same molecule, the results for the pKi in experiment [2], in experiment [4] and in experiment [5] were 6.52, 6.50 and 7.11, respectively. The Ki in experiment [3] came out at 673 nM.
As for `CC1(C)C(=O)N(Cc2ccccc2)C(=O)N1CCCCCN1CCN(c2ccccc2)CC1.Cl`, the inhibition in experiment [1] came to 14.3%. Besides, the figures for the pKi in experiment [2], in experiment [4] and in experiment [5] were 7.10, 5.36 and 7.15, respectively. Moreover, the Ki in experiment [3] came out at 68 nM.
Consider `CCOc1ccccc1N1CCN(CCCN2C(=O)N(C)C(=O)C2(c2ccccc2)c2ccccc2)CC1`, for which the pKi in experiment [2] was 8.26; in experiment [4] it was 5.38; in experiment [5] it was 7.02. The same molecule returned a Ki in experiment [3] of 2600 nM.
Regarding `COc1ccccc1N1CCN(CCCCN2C(=O)N(C)C(=O)C2(c2ccccc2)c2ccccc2)CC1`, the pKi is 9.10 in experiment [2], 5.45 in experiment [4] and 7.80 in experiment [5].
Turning to `COc1ccccc1N1CCN(CCCN2C(=O)N(C)C(=O)C2(c2ccccc2)c2ccccc2)CC1`, the pKi in experiment [2] was 8.19; in experiment [4], 4.54; in experiment [5], 6.68.
For the molecule `CC1(C)C(=O)N(Cc2ccc(Cl)cc2Cl)C(=O)N1CCCCCN1CCN(c2ccc(Cl)cc2)CC1.Cl`, the pKi was 5.66 in experiment [2], 5.54 in experiment [4] and 6.34 in experiment [5]. This molecule also registered a Ki in experiment [3] of 758.5 nM.
The corresponding values for `CC1(C)C(=O)N(Cc2ccccc2)C(=O)N1CCCCCN1CCN(c2ccc(F)cc2)CC1.Cl` are 6.70, 5.71, 7.35 and 68.4 nM.
The corresponding values for `COc1cccc(N2CCN(CCCCCN3C(=O)N(Cc4ccccc4)C(=O)C3(C)C)CC2)c1.Cl` are 7.35, 5.53, 6.91 and 97.2 nM.
